Assay results published in ChEMBL document CHEMBL1201862, “PubChem BioAssay data set” (2004).
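Five concentrations, 48 hours, 96-well plates. GI50 = concentration required for 50% inhibition of growth.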 Activity calls are given as the source filed them. Rule as the data show it: active = GI50 up to about 1.1 µM and inactive = higher.

Experiments:
Assay in all cases: NCI tumour cell line growth inhibition, 48 h
[1] = system: 786-0
[2] = system: A498
[3] = system: A549
[4] = system: ACHN
[5] = system: BT-549
[6] = system: CAKI-1
[7] = system: CCRF-CEM
[8] = system: COLO 205
[9] = system: DU-145
[10] = system: EKVX
[11] = system: HCC 2998
[12] = system: HCT-116
[13] = system: HCT-15
[14] = system: HL-60
[15] = system: HOP-62
[16] = system: HOP-92
[17] = system: HT-29
[18] = system: Hs-578T
[19] = system: IGROV-1
[20] = system: K562
[21] = system: KM12
[22] = system: LOX IMVI
[23] = system: M14
[24] = system: MCF7
[25] = system: MDA-MB-231
[26] = system: MDA-MB-435
[27] = system: MOLT-4
[28] = system: Malme-3M
[29] = system: NCI-H226
[30] = system: NCI-H23
[31] = system: NCI-H460
[32] = system: NCI-H522
[33] = system: NCI/ADR-RES
[34] = system: OVCAR-3
[35] = system: OVCAR-4
[36] = system: OVCAR-5
[37] = system: OVCAR-8
[38] = system: PC-3
[39] = system: RPMI-8226
[40] = system: RXF 393
[41] = system: SF-268
[42] = system: SF-295
[43] = system: SF-539
[44] = system: SK-MEL-28
[45] = system: SK-MEL-5
[46] = system: SK-OV-3
[47] = system: SN12C
[48] = system: SNB-19
[49] = system: SNB-75
[50] = system: SR
[51] = system: SW-620
[52] = system: T47D
[53] = system: TK-10
[54] = system: U-251
[55] = system: UACC-257
[56] = system: UACC-62
[57] = system: UO-31
[58] = system: SK-MEL-2

CCCCC1=CC1(C#N)[N+](=O)[O-] (stereo unspecified)
GI50 [1]: 72.4 µM (inactive)
GI50 [2]: 76.2 µM (inactive)
GI50 [3]: > 100 µM (inactive)
GI50 [4]: > 100 µM (inactive)
GI50 [5]: 40.6 µM (inactive)
GI50 [6]: > 100 µM (inactive)
GI50 [7]: 18.1 µM (inactive)
GI50 [8]: > 100 µM (inactive)
GI50 [9]: > 100 µM (inactive)
GI50 [10]: > 100 µM (inactive)
GI50 [11]: > 100 µM (inactive)
GI50 [12]: 33.1 µM (inactive)
GI50 [13]: > 100 µM
GI50 [14]: > 10 µM (inactive)
GI50 [15]: > 100 µM (inactive)
GI50 [16]: 48.9 µM (inactive)
GI50 [17]: > 100 µM (inactive)
GI50 [18]: > 100 µM (inactive)
GI50 [19]: > 100 µM (inactive)
GI50 [20]: 22.3 µM (inactive)
GI50 [21]: > 100 µM (inactive)
GI50 [22]: 31.3 µM (inactive)
GI50 [23]: 30.8 µM (inactive)
GI50 [24]: 45.4 µM (inactive)
GI50 [25]: > 100 µM (inactive)
GI50 [26]: > 100 µM (inactive)
GI50 [27]: 23.3 µM (inactive)
GI50 [28]: 53.6 µM (inactive)
GI50 [29]: > 100 µM (inactive)
GI50 [30]: > 100 µM (inactive)
GI50 [31]: > 100 µM (inactive)
GI50 [32]: 45.6 µM (inactive)
GI50 [33]: > 100 µM (inactive)
GI50 [34]: > 100 µM (inactive)
GI50 [35]: > 100 µM (inactive)
GI50 [36]: > 100 µM (inactive)
GI50 [37]: > 100 µM (inactive)
GI50 [38]: > 100 µM (inactive)
GI50 [39]: 25.1 µM (inactive)
GI50 [40]: > 100 µM (inactive)
GI50 [41]: > 100 µM (inactive)
GI50 [42]: > 100 µM (inactive)
GI50 [43]: > 100 µM (inactive)
GI50 [44]: > 100 µM (inactive)
GI50 [45]: 36.5 µM (inactive)
GI50 [46]: > 100 µM (inactive)
GI50 [47]: 90.8 µM (inactive)
GI50 [48]: > 100 µM (inactive)
GI50 [49]: 39.9 µM (inactive)
GI50 [50]: 33.3 µM (inactive)
GI50 [51]: 31.8 µM (inactive)
GI50 [52]: > 100 µM (inactive)
GI50 [53]: > 100 µM (inactive)
GI50 [54]: > 100 µM (inactive)
GI50 [55]: > 100 µM (inactive)
GI50 [56]: 60.3 µM (inactive)
GI50 [57]: > 100 µM (inactive)

CCN1C[C@]2(COC)[C@H](O)C[C@H](OC)[C@]34C1[C@H]([C@H](OC)[C@H]23)[C@]1(OC(C)=O)[C@H]2[C@@H](OC(=O)c3ccccc3)[C@](O)(C[C@H]24)[C@@H](OC)[C@@H]1O
GI50 [1]: > 100 µM (inactive)
GI50 [2]: > 100 µM (inactive)
GI50 [3]: > 100 µM (inactive)
GI50 [4]: > 100 µM (inactive)
GI50 [5]: > 100 µM (inactive)
GI50 [6]: > 100 µM (inactive)
GI50 [7]: > 100 µM (inactive)
GI50 [8]: > 100 µM (inactive)
GI50 [9]: > 100 µM (inactive)
GI50 [10]: > 100 µM (inactive)
GI50 [11]: > 100 µM (inactive)
GI50 [12]: > 100 µM (inactive)
GI50 [13]: > 100 µM
GI50 [14]: > 100 µM (inactive)
GI50 [16]: > 100 µM (inactive)
GI50 [17]: > 100 µM (inactive)
GI50 [18]: > 100 µM (inactive)
GI50 [19]: > 100 µM (inactive)
GI50 [20]: > 100 µM (inactive)
GI50 [21]: > 100 µM (inactive)
GI50 [22]: > 100 µM (inactive)
GI50 [23]: > 100 µM (inactive)
GI50 [24]: > 100 µM (inactive)
GI50 [25]: > 100 µM (inactive)
GI50 [26]: > 100 µM (inactive)
GI50 [27]: > 10 µM (inactive)
GI50 [28]: > 100 µM (inactive)
GI50 [29]: > 100 µM (inactive)
GI50 [30]: > 100 µM (inactive)
GI50 [31]: > 100 µM (inactive)
GI50 [32]: > 100 µM (inactive)
GI50 [33]: > 100 µM (inactive)
GI50 [35]: > 100 µM (inactive)
GI50 [36]: > 100 µM (inactive)
GI50 [37]: > 100 µM (inactive)
GI50 [38]: > 100 µM (inactive)
GI50 [41]: > 100 µM (inactive)
GI50 [42]: > 100 µM (inactive)
GI50 [43]: > 100 µM (inactive)
GI50 [44]: > 100 µM (inactive)
GI50 [58]: > 100 µM (inactive)
GI50 [45]: > 100 µM (inactive)
GI50 [46]: > 100 µM (inactive)
GI50 [47]: > 100 µM (inactive)
GI50 [48]: > 100 µM (inactive)
GI50 [49]: 31.1 µM (inactive)
GI50 [50]: > 100 µM (inactive)
GI50 [51]: > 100 µM (inactive)
GI50 [52]: > 100 µM (inactive)
GI50 [53]: > 100 µM (inactive)
GI50 [54]: > 100 µM (inactive)
GI50 [55]: > 100 µM (inactive)
GI50 [56]: > 100 µM (inactive)
GI50 [57]: > 100 µM (inactive)
